Broadly, the IC50 is the concentration at which inhibition is half-maximal.

The test system of the experiment is HCT 116 cells transfected with a luciferase reporter under the control of an HIF-responsive sequence. The experiment can be described thus: HIF-luciferase assay. As to conditions: Homo sapiens; HCT 116 HIF-luciferase reporter cells, hypoxia chamber (1% O2), 24 h, luminescence. In kind it is cell-based. The procedure: HCT 116 cells were transfected in a stable manner with a plasmid which contained a luciferase reporter under the control of an HIF-responsive sequence. These cells were sown in microtitre plates [20 000 cells/cavity in RPMI 1640 medium with 10% foetal calf serum (FCS) and 100 μg/ml of hygromycin]. Incubation was carried out overnight under standard conditions (5% CO2, 21% O2, 37° C., moistened). The following morning the cells were incubated with various concentrations of the test substances (0-10 μmol/l) in a hypoxia chamber (1% O2). After 24 h, Bright Glo reagent (Promega, Wisconsin, USA) was added in accordance with the manufacturer's instructions, and after 5 min the luminescence was measured. Cells which were incubated under normoxia served as background controls.
On the technique in general: A reporter such as luciferase makes a cellular process visible.
`Cc1cc(-c2nc(-c3ccc(OC(F)(F)F)cc3)no2)nn1Cc1cccc(OCCN2CCOCC2)c1` [Example 123, 4-(2-{3-[(5-Methyl-3-{3-[4-(trifluoromethoxy)phenyl]-1,2,4-oxadiazol-5-yl}-1H-pyrazol-1-yl)-methyl]phenoxy}ethyl)morpholine]: half-maximal inhibition (IC50) was put at 1 nM. That is a single-digit nanomolar value.

The compound `Cc1cc(-c2nc(-c3ccc(OC(F)(F)F)cc3)no2)nn1Cc1ccc(NCCN2CCOCC2)nc1` [Example 24] registered an IC50 of 10 nM. This IC50 lies about 10-fold higher than the previous one.

The compound `Cc1cc(-c2nc(-c3ccc(OC(F)(F)F)cc3)no2)cn1Cc1ccc(NCCN2CCC(O)CC2)nc1` [Example 16] registered an IC50 of 8 nM. This IC50 and that of the compound before are within 1.5-fold of each other.

Take `Cc1cc(-c2nc(-c3ccc(OC(F)(F)F)cc3)no2)nn1Cc1ccc(NCCN2CCCC2=O)nc1` [Example 73]: the half-inhibitory concentration (IC50) worked out at 8 nM.

With `Cc1cc(-c2nc(-c3ccc(OC(F)(F)F)cc3)no2)nn1Cc1ccc(NCCN2CCS(=O)(=O)CC2)nc1` [Example 102, N-[2-(1,1-Dioxidothiomorpholin-4-yl)ethyl]-5-[(5-methyl-3-{3-[4-(trifluoromethoxy)phenyl]-1,2,4-oxadiazol-5-yl}-1H-pyrazol-1-yl)methyl]pyridine-2-amine], inhibition was half-maximal at 2.5 nM (IC50).

`Cc1cc(-c2nc(-c3ccc(C(C)(C)C)cc3)no2)cn1Cc1ccc(NCCN2CCCC2)nc1` [Example 71] registered an IC50 of 6 nM.

`Cc1cc(-c2nc(-c3ccc(OC(F)(F)F)cc3)no2)nn1Cc1cccc(C(=O)N(C)CCN(C)C)c1` [Example 48, N-[2-(Dimethylamino)ethyl]-N-methyl-3-[(5-methyl-3-{3-[4-(trifluoromethoxy)phenyl]-1,2,4-oxa-diazol-5-yl}-1H-pyrazol-1-yl)methyl]benzenecarboxamide] displayed an IC50 of 10 nM.

Take `Cc1cc(-c2nc(-c3ccc(OC(F)(F)F)cc3)no2)nn1Cc1ccc(SCCN2CCCC2)cc1` [Example 67, 5-[5-Methyl-1-(4-{[2-(pyrrolidin-1-yl)ethyl]sulphanyl}benzyl)-1H-pyrazol-3-yl]-3-[4-(trifluoromethoxy)phenyl]-1,2,4-oxadiazole]: the midpoint of inhibition, the IC50, lay at 10 nM.

`Cc1cc(-c2nc(-c3ccc(OC(F)(F)F)cc3)no2)nn1Cc1ccc(NCCN2CCC(F)(F)CC2)nc1` [Example 103, N-[2-(4,4-Difluoropiperidin-1-yl)ethyl]-5-[(5-methyl-3-{3-[4-(trifluoromethoxy)phenyl]-1,2,4-oxa-diazol-5-yl}-1H-pyrazol-1-yl)methyl]pyridine-2-amine]: the half-maximal inhibitory concentration (IC50) was found to be 3 nM.

The compound `Cc1cc(-c2nc(-c3ccc(OC(F)(F)F)cc3)no2)nn1Cc1ccc(NCCCN2CCCC2=O)nc1` [Example 74] gave an IC50 of 8 nM. Against the preceding compound, the IC50 is about 2.7-fold higher.

Turning to `Cc1cc(-c2nc(-c3ccc(OC(F)(F)F)cc3)no2)nn1Cc1cccc(OCCN(C)C)c1` [Example 124, N,N-Dimethyl-2-{3-[(5-methyl-3-{3-[4-(trifluoromethoxy)phenyl]-1,2,4-oxadiazol-5-yl}-1H-pyrazol-1-yl)methyl]phenoxy}ethanamine], the IC50 turned out to be 5 nM.

For the compound `Cc1cc(-c2nc(-c3ccc(OC(F)(F)F)cc3)no2)nn1Cc1cccc(OCCN2CCCC2)c1` [Example 57, 5-(5-Methyl-1-{3-[2-(pyrrolidin-1-yl)ethoxy]benzyl}-1H-pyrazol-3-yl)-3-[4-(trifluoromethoxy)-phenyl]-1,2,4-oxadiazole], the IC50 was 10 nM. Compared with the last compound, the IC50 is about 2-fold higher.

In turn, `Cc1cc(-c2nc(-c3ccc(C(C)(C)C(F)(F)F)cc3)no2)nn1Cc1ccc(NCCN2CCCC2)nc1` [Example 14, 5-[(5-Methyl-3-{3-[4-(1,1,1-trifluoro-2-methylpropan-2-yl)phenyl]-1,2,4-oxadiazol-5-yl}-1H-pyrazol-1-yl)methyl]-N-[2-(pyrrolidin-1-yl)ethyl]pyridine-2-amine] had a half-maximal inhibitory concentration (IC50) of 7 nM.

`Cc1cc(-c2nc(-c3ccc(OC(F)(F)F)cc3)no2)nn1Cc1ccc(NCCN2CCOCC2)cc1` [Example 60, 4-[(5-Methyl-3-{3-[4-(trifluoromethoxy)phenyl]-1,2,4-oxadiazol-5-yl}-1H-pyrazol-1-yl)methyl]-N-[2-(morpholin-4-yl)ethyl]aniline] had an IC50 of 9 nM.

In turn, `Cc1cc(-c2nc(-c3ccc(S(=O)(=O)C(F)(F)F)cc3)no2)nn1Cc1ccc(NCCN2CCOCC2)nc1` [Example 22] had an IC50 of 10 nM.

These data come from patent publication US20110312930A1, “Aryl compounds with aminoalkyl substituents and their use” (BAYER SCHERING PHARMA AKTIENGESELLSCHAFT, priority 2008, published 2011).
